Data published in article PMC3615092, “Identification, Design and Bio-Evaluation of Novel Hsp90 Inhibitors by Ligand-Based Virtual Screening” (PLoS ONE, 2013).

Biological target: T1, Hsp90 (Homo sapiens, UniProt P07900)
T1 construct: The region encoding full-length Hsp90 was subcloned into pET28a; inferred from the pET28a vector and Ni-NTA purification; made in house; host or cells: E. coli
Experiment: Malachite green assay of Hsp90 ATPase activity
Format: biochemical
Details: by malachite green assay
Experimental: The region encoding full-length Hsp90 was subcloned into pET28a. Protein expression in E. coli cells were induced with 0.5 mM IPTG. Cells were harvested after 20h of growth at 16°C and then disrupted by sonication. The soluble lysate was clarified by centrifugation and applied to a Ni^2+-nitrilo-triacetic acid (NTA) agarose column in a buffer (50 mM Tris-Cl, 300 mM NaCl, 10 mM Imidazole, 10% [v/v] Glycerol, 10 mM PMSF, 10 mM DTT). Hsp90 Protein was eluted with a linear gradient of 20–1000 mM imidazole. Hsp90 was identified by SDS-PAGE, and the high concentrated fraction was dialyzed against ATPase buffer (20 mM Tris-Cl, pH 7.5; 6 mM MgCl2; 20 mM KCl) and then aliquoted, frozen in liquid nitrogen, stored at −80°C.
The test compounds were diluted from mother plates (10 mM in 100% (v/v) DMSO) into daughter plates (200 μM in 2.0% (v/v) DMSO); 5 μL of test compound solution was added to each well (equivalent to a final concentration of 40 μM) of the 96-well assay plate. The first and last rows of the 96-well plate contained the appropriate concentration of DMSO were used as blank control. ATP was dissolved in the assay buffer to give a stock concentration of 2.5 mM and stored at room temperature. A 10 μL aliquot of ATP solution was added to each well to give a final assay concentration of 1 mM. Before the usage, Hsp90 protein was thawed on ice and suspended in chilled assay buffer to a stock concentration of 0.45 mg/mL, and the solution was kept on ice. The incubation was started by adding 10 μL of the stock Hsp90 to each well (except for the background wells which received 10 μL of assay buffer), giving a final assay volume of 25 μL. The plates were shaken for approximately 2 min and incubated for 3 h at 37°C.
The assay procedures were based on the literatures [33]–[35]. […] The reagent is initially dark brown, but on standing for ∼2 h at room temperature changes to a golden yellow and is ready for use. The assay buffer was 100 mM Tris–HCl, 20 mM KCl, 6 mM MgCl2, pH 7.4.
To stop the ATPase reactions, 80 μL of the malachite green reagent was added to each well.

## COc1ccccc1N1CCN(CC(O)COCCOc2ccc(Br)cc2)CC1 (stereo not shown) [Compound S13]
  IC50: 3.89 ± 0.54 µM
